Measurements as given in ChEMBL document CHEMBL3046712, “Molecular simulations of bergenin as a new urease inhibitor” (Med Chem Res, 2012).
pIC50: −log10 of the molar value.

Experiments:
[1] = (§1) Inhibition of Sporosarcina pasteurii urease using urea as substrate after 15 min
[2] = system: Sporosarcina pasteurii; test: as §1

`COc1c(O)cc2c(c1O)[C@@H]1O[C@H](CO)[C@@H](O)[C@H](O)[C@H]1OC2=O` [BERGENIN] showed a pIC50 [1] of 4.66 and an inhibition [2] of 78%.

With `NC(N)=S` [THIOUREA] the pIC50 [1] was 4.60.
